Like-named read-outs stand apart in the source and are kept apart here.
Experiments:
rat = assay: Expectorating activity in the rat (method of K. Kogi et al.); assay type: in vivo; settings: os, read-out: Expectorating activity in the rat, ED₅₀ os
From the text: (§1) The following table indicates e.g. the bronchial secretion stimulating and mucolytic activity of the compound 10 (R⁴=H, R⁵=OH) as compared to sobrerol.

healthy rabbit = assay: Production of mucus in the healthy rabbit (method of R. Scuri et al.); assay type: in vivo; settings: Oryctolagus cuniculus, administration route: oral
From the text: as §1

[1] = read-out: Production of mucus in the healthy rabbit: No.of animals/increase, ED₅₀
[2] = read-out: Production of mucus in the healthy rabbit: Production of mucus, ED₅₀

Row | SMILES | ED50 (rat) | ED50 (healthy rabbit; [1]) | ED50 (healthy rabbit; [2])
1 | CC1=CCC(C(C)(C)O)CC1O (stereo not drawn) [Sobrerol] | 40 mg/kg | 500 mg/kg | 500 mg/kg
2 | CC(C)(O)C1CC=C(CS)C(O)C1 (stereo not drawn) [Compound 10, 2-hydroxy-4-(1-hydroxy-1-methylethyl)-6-cyclohexene-1-methanethiol] | 100 mg/kg | 400 mg/kg | 400 mg/kg
